Test results: patent EP2818472A1, “Imidazo[4,5-c]pyridine and pyrrolo[3,2-c]pyridine compounds as G-protein-coupled receptor kinase 5 (GRK5) modulators” (Max-Planck-Gesellschaft zur Förderung der Wissenschaften …, priority 2013, dated 2014)

Each compound was assayed on beta-TC6 cells (assay: Insulin HTRF assay (relative activity Ar) in beta-TC6 cells). Details: Mus musculus, Beta-TC6, 4 h, insulin HTRF, supernatant of beta-TC6 cells, incubation with test compound at 37°C for 2, 3, 4h; read-out: Ar (relative activity).
Assay type: cell-based, mouse
Method in brief: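 beta-TC6 cells (15k/well, seeded 24 or 48 h) washed, then exposed to compound in induction buffer (0.5% DMSO final) for 2, 3 or 4 h at 37°C.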

| Structure (SMILES) | Emax |
| --- | --- |
| COc1ccc(Nc2nccc3[nH]c(-c4cccc(F)c4)nc23)cc1 [Compound 407, 2-(3-fluorophenyl)-N-(4-methoxyphenyl)-1H-imidazo[4,5-c]pyridin-4-amine] | 50 to 100% |
| CNc1nc2cnc(Nc3cc(OC)c(OC)c(OC)c3)cc2n1-c1cccc(F)c1 [Compound 679, 1-(3-fluorophenyl)-N2-methyl-N6-(3,4,5-trimethoxyphenyl)imidazo[4,5-c]pyridine-2,6-diamine] | 50 to 100% |
| Cn1c(-c2ccco2)nc2cnc(-c3cccc(O)c3)cc21 [Compound 736, 3-[2-(2-furyl)-1-methyl-imidazo[4,5-c]pyridin-6-yl]phenol] | 50 to 100% |
| COc1ccc(Nc2nccc3c2cc(-c2cccc(F)c2)n3C)cc1OC [Compound 208, N-(3,4-dimethoxyphenyl)-2-(3-fluorophenyl)-1-methyl-pyrrolo[3,2-c]pyridin-4-amine] | 30 to 50% |
| CNc1nc2cnc(-c3ccsc3)cc2n1Cc1ccc(OC)c(OC)c1 [Compound 877, 1-[(3,4-dimethoxyphenyl)methyl]-N-methyl-6-(3-thienyl)imidazo[4,5-c]pyridin-2-amine] | 30 to 50% |
| CC(=O)Nc1cccc(Nc2nccc3[nH]c(-c4cccc(F)c4)cc23)c1 [Compound 206, N-[3-[[2-(3-fluorophenyl)-1H-pyrrolo[3,2-c]pyridin-4-yl]amino]phenyl]acetamide] | 50 to 100% |
| COCCCNc1nccc2[nH]c(-c3ccc4c(c3)OCCO4)nc12 [Compound 420, 2-(2,3-dihydro-1,4-benzodioxin-6-yl)-N-(3-methoxypropyl)-1H-imidazo[4,5-c]pyridin-4-amine] | 30 to 50% |
| CNc1nc2cnc(-c3cccc4ccccc34)cc2n1Cc1ccc(OC)c(OC)c1 [Compound 670, 1-[(3,4-dimethoxyphenyl)methyl]-N-methyl-6-(1-naphthyl)imidazo[4,5-c]pyridin-2-amine] | 30 to 50% |
| CNc1nc2cnc(Nc3cccc(F)c3)cc2n1-c1cc(OC)c(OC)c(OC)c1 [Compound 494, N6-(3-fluorophenyl)-N2-methyl-1-(3,4,5-trimethoxyphenyl)imidazo[4,5-c]pyridine-2,6-diamine] | 30 to 50% |
| CNc1nc2cnc(-c3cccc(C(=O)NCCO)c3)cc2n1Cc1ccccc1 [Compound 794, 3-[1-benzyl-2-(methylamino)imidazo[4,5-c]pyridin-6-yl]-N-(2-hydroxyethyl)benzamide] | 0 to 30% |
| COc1ccc(Nc2nccc3c2cc(-c2cccnc2)n3C)cc1OC [Compound 238, N-(3,4-dimethoxyphenyl)-1-methyl-2-(3-pyridyl)pyrrolo[3,2-c]pyridin-4-amine] | 30 to 50% |
| c1ccc(Cn2cnc3c(NCc4ccc5c(c4)OCO5)nccc32)cc1 [Compound 454, N-(1,3-benzodioxol-5-ylmethyl)-1-benzyl-imidazo[4,5-c]pyridin-4-amine] | 50 to 100% |
| CNc1nc2cnc(-c3ccc(N(C)C)cc3)cc2n1-c1cccc(F)c1 [Compound 678, 6-(4-dimethylaminophenyl)-1-(3-fluorophenyl)-N-methyl-imidazo[4,5-c]pyridin-2-amine] | > 100% |
| Oc1cccc(Nc2nccc3[nH]c(-c4ccccc4)nc23)c1 [Compound 337, 3-[(2-phenyl-1H-imidazo[4,5-c]pyridin-4-yl)amino]phenol] | 30 to 50% |
| Cn1c(NCc2ccccc2)nc2cnc(Nc3cccc(F)c3)cc21 [Compound 629, N2-benzyl-N6-(3-fluorophenyl)-1-methyl-imidazo[4,5-c]pyridine-2,6-diamine] | 30 to 50% |
| Cn1cc(-c2cc3cnc(Nc4cccc(O)c4)cc3n2C)cn1 [Compound 144, 3-[[1-methyl-2-(1-methylpyrazol-4-yl)pyrrolo[3,2-c]pyridin-6-yl]amino]phenol] | > 100% |
| CNc1nc2cnc(-c3cccnc3OC)cc2n1-c1ccccc1 [Compound 788, 6-(2-methoxy-3-pyridyl)-N-methyl-1-phenyl-imidazo[4,5-c]pyridin-2-amine] | 30 to 50% |
| CNc1nc2cnc(Nc3ccc(N4CCN(C)CC4)cc3)cc2n1-c1cc(OC)c(OC)c(OC)c1 [Compound 489, N2-methyl-N6-[4-(4-methylpiperazin-1-yl)phenyl]-1-(3,4,5-trimethoxyphenyl)imidazo[4,5-c]pyridine-2,6-diamine] | 50 to 100% |
| COc1ccc(OC)c(CCNc2nc3cnc(-c4cccc(NS(C)(=O)=O)c4)cc3n2C)c1 [Compound 825, N-[3-[2-[2-(2,5-dimethoxyphenyl)ethylamino]-1-methyl-imidazo[4,5-c]pyridin-6-yl]phenyl]methanesulfonamide] | 0 to 30% |
| COc1ccc(-c2cc3c(cn2)nc(NCc2ccccc2F)n3C)cc1OC [Compound 865, 6-(3,4-dimethoxyphenyl)-N-[(2-fluorophenyl)methyl]-1-methyl-imidazo[4,5-c]pyridin-2-amine] | 30 to 50% |
| CC(=O)c1cccc(Nc2cc3[nH]c(-c4ccc(C(=O)N(C)C)cc4)cc3cn2)c1 [Compound 42, 4-[6-(3-acetylanilino)-1H-pyrrolo[3,2-c]pyridin-2-yl]-N,N-dimethyl-benzamide] | 50 to 100% |

| Structure (SMILES) | Emax |
| --- | --- |
| COc1cc(Nc2cc3c(cn2)nc(-c2ccncc2)n3C)cc(OC)c1OC [Compound 724, 1-methyl-2-(4-pyridyl)-N-(3,4,5-trimethoxyphenyl)imidazo[4,5-c]pyridin-6-amine] | 30 to 50% |
| Fc1ccc(C(F)(F)F)cc1Nc1cc2[nH]c(-c3cccnc3)cc2cn1 [Compound 79, N-[2-fluoro-5-(trifluoromethyl)phenyl]-2-(3-pyridyl)-1H-pyrrolo[3,2-c]pyridin-6-amine] | 30 to 50% |
| COc1ccc(Nc2nccc3[nH]c(-c4ccccc4)nc23)cc1 [Compound 333, N-(4-methoxyphenyl)-2-phenyl-1H-imidazo[4,5-c]pyridin-4-amine] | 50 to 100% |
| CNc1nc2cnc(Nc3cccc(OC)c3)cc2n1-c1ccccc1 [Compound 503, N6-(3-methoxyphenyl)-N2-methyl-1-phenyl-imidazo[4,5-c]pyridine-2,6-diamine] | 50 to 100% |
| CNc1nc2cnc(Nc3ccc4c(c3)OCCO4)cc2n1-c1ccccc1 [Compound 505, N6-(2,3-dihydro-1,4-benzodioxin-6-yl)-N2-methyl-1-phenyl-imidazo[4,5-c]pyridine-2,6-diamine] | 50 to 100% |
| COc1ccc(Nc2nccc3[nH]c(-c4cccnc4)cc23)cc1O [Compound 236, 2-methoxy-5-[[2-(3-pyridyl)-1H-pyrrolo[3,2-c]pyridin-4-yl]amino]phenol] | 50 to 100% |
| Cn1c(Nc2ccccc2)nc2cnc(-c3cccc4ccccc34)cc21 [Compound 635, 1-methyl-6-(1-naphthyl)-N-phenyl-imidazo[4,5-c]pyridin-2-amine] | 30 to 50% |
| Cn1c(NCc2ccccc2)nc2cnc(-c3cccc(C(=O)O)c3)cc21 [Compound 748, 3-[2-(benzylamino)-1-methyl-imidazo[4,5-c]pyridin-6-yl]benzoic acid] | 0 to 30% |
| COc1ccc(-c2nc3c(N4CCOCC4)nccc3[nH]2)cc1 [Compound 399, 4-[2-(4-methoxyphenyl)-1H-imidazo[4,5-c]pyridin-4-yl]morpholine] | 30 to 50% |
| COc1cc(OC)cc(-c2cc3c(Nc4ccc(S(C)(=O)=O)cc4)nccc3[nH]2)c1 [Compound 293, 2-(3,5-dimethoxyphenyl)-N-(4-methylsulfonylphenyl)-1H-pyrrolo[3,2-c]pyridin-4-amine] | 50 to 100% |
| CN(C)C(=O)c1ccc(-c2cc3cnc(Nc4ccccn4)cc3n2C)cc1 [Compound 51, N,N-dimethyl-4-[1-methyl-6-(2-pyridylamino)pyrrolo[3,2-c]pyridin-2-yl]benzamide] | 30 to 50% |
| CNc1nc2cnc(Nc3ccc(OC)cc3)cc2n1-c1cccc(C(F)(F)F)c1 [Compound 547, N6-(4-methoxyphenyl)-N2-methyl-1-[3-(trifluoromethyl)phenyl]imidazo[4,5-c]pyridine-2,6-diamine] | 30 to 50% |
| CS(=O)(=O)Nc1cccc(Nc2nccc3[nH]c(-c4ccccc4Cl)nc23)c1 [Compound 463, N-[3-[[2-(2-chlorophenyl)-1H-imidazo[4,5-c]pyridin-4-yl]amino]phenyl]methanesulfonamide] | 30 to 50% |
| CN(C)c1cccc(-c2cc3c(cn2)ncn3-c2cccc(F)c2)c1 [Compound 740, 3-[1-(3-fluorophenyl)imidazo[4,5-c]pyridin-6-yl]-N,N-dimethyl-aniline] | 50 to 100% |
| CNc1nc2cnc(-c3cccc(C(F)(F)F)c3)cc2n1C [Compound 831, N,1-dimethyl-6-[3-(trifluoromethyl)phenyl]imidazo[4,5-c]pyridin-2-amine] | 0 to 30% |
| CC(C)Oc1ccc(Nc2cc3[nH]c(-c4cncn4C)cc3cn2)cc1 [Compound 109, N-(4-isopropoxyphenyl)-2-(3-methylimidazol-4-yl)-1H-pyrrolo[3,2-c]pyridin-6-amine] | 50 to 100% |
| c1ccc(Cn2c(-c3cccnc3)cc3cnc(Nc4ccccn4)cc32)cc1 [Compound 98, 1-benzyl-N-(2-pyridyl)-2-(3-pyridyl)pyrrolo[3,2-c]pyridin-6-amine] | 30 to 50% |
| CNc1nc2cnc(Nc3ccc(OC(C)C)cc3)cc2n1CCOC [Compound 500, N6-(4-isopropoxyphenyl)-1-(2-methoxyethyl)-N2-methyl-imidazo[4,5-c]pyridine-2,6-diamine] | 50 to 100% |
| COc1ccc(-c2nc3c(NCC(C)C)nccc3[nH]2)cc1OC [Compound 344, 2-(3,4-dimethoxyphenyl)-N-isobutyl-1H-imidazo[4,5-c]pyridin-4-amine] | 30 to 50% |
| COc1ccc(Nc2nccc3[nH]c(-c4ccccc4)nc23)cc1OC [Compound 330, N-(3,4-dimethoxyphenyl)-2-phenyl-1H-imidazo[4,5-c]pyridin-4-amine] | > 100% |

Same assay, conditions: Mus musculus, Beta-TC6, 4 h, read-out: Ar (relative activity)

| Structure (SMILES) | Emax |
| --- | --- |
| CCN(CC)CCNC(=O)c1ccc(Nc2nccc3[nH]c(-c4cccc(OC)c4F)nc23)cc1 [Compound 473, N-(2-diethylaminoethyl)-4-[[2-(2-fluoro-3-methoxy-phenyl)-1H-imidazo[4,5-c]pyridin-4-yl]amino]benzamide] | > 100% |
